Results on three molecules are retold here after publication PMC5007854, “β-Nitrostyrenes as Potential Anti-leishmanial Agents” (Frontiers in Microbiology, 2016).

Series [1] concerns L. donovani promastigotes. As to the kind of experiment: Anti-leishmanial screening at 100 μM, parasite viability by microscopy. Type of series: cell-based, Leishmania donovani. The settings on record: for Anti-leishmanial activity, in words (SAR discussion): L. donovani promastigotes. The procedure:
(§1) L. donovani parasites (MHOM/IN/83/AG83) were maintained in vivo in BALB/c mice. Promastigotes were routinely cultured at 22°C in medium M199 supplemented with 10% heat inactivated fetal bovine serum (FBS, HiMedia Laboratories, Mumbai, India), penicillin 100 (IU/ml), streptomycin (100 μg/ml). Log phase promastigotes were sub-cultured every 72–96 h, the inoculum being 2 × 10^6 cells/ml (Afrin et al., [2002]).
Nitrostyrine series were screened for their antileishmanial activity against L. donovani promastigotes in vitro. Promastigotes of L. donovani (2 × 10^6 cells/mL) in M199 medium were incubated at 22°C for 72 h with each compound at a concentration of 100 μM. Amphotericin B (AmB) served as reference drug, 0.2% DMSO was used as solvent control. Parasites with media alone were taken as control. Parasite viability was determined microscopically after 72 h (Islamuddin et al., [2014b]).

Series [2] has as its system L. donovani promastigotes. As to the kind of experiment: Dose-dependent anti-promastigote activity, IC50 and IC90. It is filed as cell-based, Leishmania donovani. The procedure: as §1
AmB was used as a standard antileishmanial drug control. The cell viability was evaluated by microscopically and the mean percentage viability was calculated as follows: Mean cell number of treated parasites / Mean cell number of untreated parasites × 100. The 50 and 90% inhibitory concentration (IC50 and IC90) i.e., the concentration of drugs that decreased the cell growth by 50 and 90% respectively was determined by graphical extrapolation after plotting the graph of % viability vs. concentration of drug (Islamuddin et al., [2014b]).
In vitro antileishmanial activity was expressed as IC50 by linear regression analysis. Values are mean ± SE of samples in triplicate from at least three independent experiments. Statistical analysis was performed using ANOVA followed by Dunnett's test. ^*P < 0.05, ^**P < 0.01 and ^***P < 0.001 compared with the untreated control group were considered significant.

Series [3] deals with Staphylococcus epidermidis ATCC 14990. The series can be described thus: Broth microdilution antibacterial susceptibility (MIC/MBC). Type of series: cell-based. The settings on record: for MIC / MBC: Staphylococcus epidermidis; for MIC: ATCC14990, 24 h, read-out: MIC, Se ATCC 14990; for MBC: ATCC14990, ≥99.9% reduction of original inoculum, read-out: MBC, Se ATCC 14990. The method, boiled down: (§2)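 CLSI broth microdilution: Ca/Mg-supplemented Mueller-Hinton for bacteria (~5 × 10^5 CFU/mL, 24 h), MOPS-buffered RPMI 1640 pH 7.0 for fungi (Candida ~2.5 × 10^4, Aspergillus 0.4-5 × 10^4 CFU/mL, 48 h), 35°C, 1% DMSO, 64 to 0.12 μg/mL. MIC read visually; MBC/MFC by plating clear wells.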

Series [4] has as its system Pseudomonas aeruginosa ATCC 27853. Described as above. It is filed as cell-based. As to conditions: for MIC / MBC: Pseudomonas aeruginosa; for MIC: ATCC27853, 24 h, read-out: MIC, Pa ATCC 27853; for MBC: ATCC27853, ≥99.9% reduction of original inoculum, read-out: MBC, Pa ATCC 27853. Put shortly: as §2
Series [5] relates to Escherichia coli ATCC 25922. The series is described as above. Type of series: cell-based. As to conditions: for MIC / MBC: Escherichia coli; for MIC: ATCC25922, 24 h, read-out: MIC, Ec ATCC 25922; for MBC: ATCC25922, ≥99.9% reduction of original inoculum, read-out: MBC, Ec ATCC 25922. Put shortly: as §2
The test system of series [6] is Staphylococcus aureus ATCC 29213. The series is described as above. It is filed as cell-based. As to conditions: for MIC / MBC: Staphylococcus aureus; for MIC: ATCC29213, 24 h, read-out: MIC, Sa ATCC 29213; for MBC: ATCC29213, ≥99.9% reduction of original inoculum, read-out: MBC, Sa ATCC 29213. The method, boiled down:
as §2

Series [7] deals with Candida albicans ATCC 90028. The series can be described thus: Broth microdilution antifungal susceptibility (MIC/MFC). As to conditions: Candida albicans; for MFC: ATCC90028, ≥99.9% reduction of original inoculum, read-out: MFC, Ca ATCC 90028; for MIC: ATCC90028, 48 h, broth microdilution, 35°C, 48 h, read-out: MIC, Ca ATCC 90028. Type of series: cell-based. Put shortly: as §2
(In general: In broth dilution the organism is exposed to a series of concentrations in liquid medium.)

Series [8] relates to Aspergillus fumigatus ATCC 16424. Described as above. Type of series: cell-based. The settings on record: for MIC / MFC: Aspergillus fumigatus; for MIC: ATCC16424, 48 h, read-out: MIC, Af ATCC 16424; for MFC: ATCC16424, ≥99.9% reduction of original inoculum, read-out: MFC, Af ATCC 16424. The method, boiled down:
as §2

In series [9] the test system is Aspergillus niger ATCC 16404. The description is as above. Type of series: cell-based. The settings on record: for MIC / MFC: Aspergillus niger; for MIC: ATCC16404, 48 h, read-out: MIC, An ATCC 16404; for MFC: ATCC16404, ≥99.9% reduction of original inoculum, read-out: MFC, An ATCC 16404. The method, boiled down:
as §2

For series [10], the system named is Candida glabrata ATCC 90030. The series is described as above. Type of series: cell-based. The settings on record: Nakaseomyces glabratus; for MFC: ATCC90030, ≥99.9% reduction of original inoculum, read-out: MFC, Cg ATCC 90030; for MIC: ATCC90030, 48 h, broth microdilution, 35°C, 48 h, read-out: MIC, Cg ATCC 90030. The method, boiled down:
as §2

[11] abbreviates: broth microdilution, 35°C, 24 h.
The mark [12] stands for this setting: broth microdilution, 35°C, 48 h.

Values after ≈ are worked out from the molar mass of the structure shown.

What is called melting point is the temperature, or range, at which the solid turns liquid. The IC50 is the midpoint of a concentration-inhibition curve. As usually defined, the MIC is the lowest concentration that inhibits growth of the organism. The term MBC denotes the smallest concentration meeting the test's criterion for killing. As a reminder, the MFC is the lowest tested concentration that kills the fungus rather than only halting it. `C/C(=C\c1cccc(O)c1)[N+](=O)[O-]` [Compound 20, 3-((E)-2-nitroprop-1-enyl) phenol] returned a melting point of 96 to 98 °C. Moreover, the “Parasite viability after treatment” value in series [1] (100 μM, 72 h, phase contrast microscope) is “All the parasites were found to be dead”. Also, in series [2] (L. donovani promastigotes), the “Anti-leishmanial activity, in words (compounds with IC50 determined)” value is given as “moderately active”. Besides, the IC50 in [2] (Leishmania donovani, 72 h, 22°C, values given in μM, read-out: IC50 against promastigotes) was determined as 63.2 ± 2.06 µM. Besides, in [3] (setting [11]), the MIC fell in the range of 2 to 16 µg/mL (≈ 11.2 to 89.3 µM) and the “MIC, Se ATCC 14990” value came out at 2 µg/mL (≈ 11.2 µM). Further, the MBC in [3] turned out to be 2 µg/mL (≈ 11.2 µM). For the same molecule, in series [4] (setting [11]), the MIC lay in the range of 16 to 32 µg/mL (≈ 89.3 to 179 µM) and the “MIC, Pa ATCC 27853” value is 16 µg/mL (≈ 89.3 µM). Besides, in series [4], the MBC worked out at 32 µg/mL (≈ 179 µM). In series [5] (setting [11]), the MIC lay within 16 to 32 µg/mL (≈ 89.3 to 179 µM) and the “MIC, Ec ATCC 25922” value was found to be 16 µg/mL (≈ 89.3 µM). Besides, the MBC in series [5] amounted to 16 µg/mL (≈ 89.3 µM). Besides, in [6] (setting [11]), the MIC was 2 to 32 µg/mL (≈ 11.2 to 179 µM) and the “MIC, Sa ATCC 29213” value amounted to 2 µg/mL (≈ 11.2 µM). The MBC in series [6] stood at 4 µg/mL (≈ 22.3 µM). Besides, in series [7], the MFC was 16 µg/mL (≈ 89.3 µM). Besides, in series [8] (setting [12]), the MIC was in the range of 4 to 8 µg/mL (≈ 22.3 to 44.6 µM) and the “MIC, Af ATCC 16424” value came to 8 µg/mL (≈ 44.6 µM). The MFC in series [8] worked out at 8 µg/mL (≈ 44.6 µM). In series [9] (setting [12]), the MIC lay in the range of 2 to 4 µg/mL (≈ 11.2 to 22.3 µM) and the “MIC, An ATCC 16404” value was found to be 4 µg/mL (≈ 22.3 µM). Besides, the MFC in [9] was 4 µg/mL (≈ 22.3 µM). In series [10], the MFC was 8 µg/mL (≈ 44.6 µM).
For the molecule `CC/C(=C(/C)c1cccc(O)c1)[N+](=O)[O-]` [Compound 26, 3-((E)-3-nitropent-2-en-2-yl)phenol], the melting point is 138 to 140 °C. In addition, in [1], the “Anti-leishmanial activity, in words (SAR discussion)” value is “loss of activity”. For the same molecule, in series [3] (setting [11]), the MIC stood at 8 µg/mL (≈ 38.6 µM). Further, the MBC in series [3] is 8 µg/mL (≈ 38.6 µM). Moreover, the MIC in series [4] (setting [11]) is greater than 64 µg/mL. Further, in [4], the MBC was greater than 64 µg/mL. Moreover, the MIC in series [5] (setting [11]) is greater than 64 µg/mL. For the same molecule, the MBC in series [5] was greater than 64 µg/mL. In series [6] (setting [11]), the MIC is 8 µg/mL (≈ 38.6 µM). Also, the MBC in series [6] turned out to be 16 µg/mL (≈ 77.2 µM). Also, in series [7], the MIC is greater than 64 µg/mL and the MFC was greater than 64 µg/mL. In [8] (setting [12]), the minimum inhibitory concentration (MIC) was greater than 64 µg/mL. For the same molecule, the MFC in [8] is greater than 64 µg/mL. Further, in [9] (setting [12]), the MIC was determined as 64 µg/mL (≈ 309 µM). The MFC in [9] is greater than 64 µg/mL. In addition, in series [10], the MIC was greater than 64 µg/mL and the MFC is greater than 64 µg/mL.
As to `CCOc1cccc(/C=C/[N+](=O)[O-])c1O` [Compound 27, 2-ethoxy-6-((E)-2-nitrovinyl) phenol], the melting point lay within 128 to 130 °C. Besides, the “Anti-leishmanial activity, in words (SAR discussion)” value in series [1] is “inactive”. The MIC in series [3] (setting [11]) was 16 µg/mL (≈ 76.5 µM). Moreover, the MBC in series [3] is 16 µg/mL (≈ 76.5 µM). The MIC in series [4] (setting [11]) is greater than 64 µg/mL. In addition, in series [4], the MBC was greater than 64 µg/mL. Besides, in [5] (setting [11]), the MIC was greater than 64 µg/mL. Also, the MBC in series [5] is greater than 64 µg/mL. Besides, the MIC in [6] (setting [11]) amounted to 32 µg/mL (≈ 153 µM). Also, the minimum bactericidal concentration (MBC) in [6] is 32 µg/mL (≈ 153 µM). Besides, in [7], the MIC stood at 32 µg/mL (≈ 153 µM) and the MFC came out at 32 µg/mL (≈ 153 µM). The MIC in [8] (setting [12]) was 16 µg/mL (≈ 76.5 µM). Moreover, in [8], the MFC was found to be 16 µg/mL (≈ 76.5 µM). In addition, the MIC in [9] (setting [12]) amounted to 8 µg/mL (≈ 38.2 µM). Moreover, in [9], the MFC turned out to be 8 µg/mL (≈ 38.2 µM). Also, in series [10], the MIC was 16 µg/mL (≈ 76.5 µM) and the MFC stood at 16 µg/mL (≈ 76.5 µM).
